This passage reports IC50 and viability results from paper PMC12368482, “Antiprotozoal Activity of Highly Substituted Pyrazole and Pyrimidine Derivatives” (Chemmedchem, 2025).

Read-outs that look alike come from different tables or passages of the source.

Common to all, as to type: cell-based
In one data set the test system is P. falciparum W2. The data set can be described thus: Antiplasmodial susceptibility assay (pLDH), CQ-resistant W2 strain. The settings on record: Plasmodium falciparum, read-out: IC50 P. falciparum W2. The procedure:
(§1) Continuous in vitro Plasmodium falciparum cultures were carried out according to Trager and Jensen with slight modifications.^[ [38] ^] The CQ‐susceptible strain D10 and the CQ‐resistant strain W2 were maintained at 5% hematocrit (human type A‐positive red blood cells) in RPMI 1640 (EuroClone, Celbio) medium with the addition of 1% AlbuMax (Invitrogen, Milan, Italy), 0.01% hypoxanthine, 20 mM HEPES (at pH 7.4), and 2 mM glutamine. All the cultures were maintained at 37 °C in a low‐oxygen atmosphere consisting of 1% O2, 5% CO2, and 94% N2. Compounds were dissolved in DMSO to a stock concentration of 10 mg/ml and then diluted with complete medium to achieve the desired concentrations (final DMSO concentration <1%, which is nontoxic to the parasite). Derivatives were placed in 96‐well flat‐bottomed microplates in duplicate, and seven 1:2 serial dilutions were made directly in the plate in a volume of 100 μL. Asynchronous cultures with parasitemia of 1%–1.5% (assessed through Giemsa stained blood smears) and 1% final hematocrit were aliquoted into the plates and incubated for 72 h at 37 °C in a final volume of 200 μL/well. Uninfected erythrocytes at 2% hematocrit were used as blank. The antimalarial CQ was tested against the parasite strains as a positive control of inhibition. Parasite growth was determined spectrophotometrically (OD650) by measuring the activity of the parasite lactate dehydrogenase (pLDH), according to a modified version of the method of Makler in control and drug‐treated cultures.^[ [39] ^] The antimalarial activity was expressed as 50% inhibitory concentrations (IC50). The IC50 values were extrapolated from nonlinear regression analysis of the concentration–response curve, using the software Gen5 1.10 provided with the Synergy 4 (BioTek) reader. Each IC50 value was the mean of three independent experiments run in duplicates.

Data set [1] concerns L. infantum promastigotes. The data set can be described thus: Antileishmanial evaluation (MTT), promastigotes. As to conditions: Leishmania infantum, 72 h, NA = not active. The procedure: (§2) The promastigote stage of L. infantum strain MHOM/TN/80/IPT1 (kindly provided by Dr M. Gramiccia, ISS, Roma) and L. tropica strain (MHOM/IT/2012/ISS3130) were cultured in RPMI 1640 medium (EuroClone) supplemented with 10% heat‐inactivated fetal calf serum (EuroClone), 20 mM Hepes, and 2 mM L‐glutamine at 24 °C. To determine the 50% inhibitory concentration (IC50), the MTT method was used.^[ [40], [41] ^] Compounds were dissolved in DMSO and then diluted with medium to achieve the required concentrations. Drugs were placed in 96 wells round‐bottom microplates and seven serial dilutions made. Amphotericin B was used as reference antiLeishmania drug. Parasites were diluted in complete medium to 5 × 10^6 parasites mL^−1 and 100 μL of the suspension was added to each well. The plates were incubated at 24 °C for 72 h, after the incubation 20 μL of MTT solution (5 mg mL^−1) was added to each well and incubated for additional 3 h. The plates were then centrifuged at 1000 × g for 8 min at room temperature and the supernatants were discarded. The resulting pellets were dissolved in 100 μL of lysing buffer consisting of 20% w/v of a solution of SDS (Sigma), 40% of DMF (Merck) in H2O. The absorbance was measured spectrophotometrically at a test wavelength of 550 nm and a reference wavelength of 650 nm. The results were expressed as IC50 which was the concentration of compound necessary to inhibit parasite growth by 50%; each IC50 value was the mean of separate experiments performed in duplicate.

Another data set relates to L. tropica promastigotes. In words: Antileishmanial evaluation (MTT), promastigotes. The settings on record: Leishmania tropica, 72 h, NA = not active. The procedure:
as §2

The next data set deals with P. falciparum D10. In words: Antiplasmodial susceptibility assay (pLDH), CQ-sensitive D10 strain. The settings on record: Plasmodium falciparum, read-out: IC50 P. falciparum D10. The procedure:
as §1

Data set [2] can be described thus: MTT cytotoxicity assay on fibroblasts. As to conditions: human, GM-6114 embryonic human fibroblasts, compounds tested at 10 μM for 48 h, percentage of control, read-out: Cell viability GM‐6114. The procedure: MTT assays: MTT assays were performed using GM‐6114 (embryonic human fibroblast, ATCC, Manassas, VA). The cells were grown in DMEM with 10% FBS, 2 mM glutamine, and 1% penstrep and incubated at 37 °C in 5% CO2 in a humidified environment. All reagents were purchased from EuroClone (Milan, Italy). Briefly, the cell line was plated in 96 well plates at an adequate number to reach 80%–90% of confluence at the end of the assay. 16 h after cell plating, compounds were dissolved in DMSO to give a 10 mM stock solution, diluted in growth medium, and added at a final working concentration of 10 μM. After 48 h of incubation, 30 μL of 3‐(4,5‐dimethyl‐2‐thiazolyl)‐2,5‐diphenyl‐2H‐tetrazolium bromide (MTT) at a concentration of 2 mg mL^−1 in PBS were added in each well. Then, after further 4 h of incubation, the supernatant was removed, and 100 μL/well of DMSO were used to dissolve the formazan precipitate that could be found in vital cells. After 20 min, the results were read at 570 nm by means of a plate reader. The results were expressed as percentage of the control samples in which the cells were incubated with the same amount of DMSO but without compounds. The assays were repeated three times. In each set, every single compound was tested six times. Variation among duplicates was less than 10%.

The mark [3] stands for this setting: CQ-resistant strain W2, 72 h, pLDH readout, mean of three independent experiments in duplicate, NA = not active.
Where [4] appears, read: CQ-sensitive strain D10, 72 h, pLDH readout, mean of three independent experiments in duplicate, NA = not active.

For the compound `COc1ccc(CCNc2[nH]nc(C(C)(C)C)c2C#N)cc1OC` [13a, 3‐(tert‐butyl)‐5‐((3,4‐dimethoxyphenethyl)amino)‐1H‐pyrazole‐4‐carbonitrile], the 50% inhibitory concentration (IC50) (usually the concentration that gives 50% inhibition) with P. falciparum W2 (setting [3]) was 25.6 µM; in data set [1], 40.1 µM; in the data set with L. tropica promastigotes, 52.2 µM; with P. falciparum D10 (setting [4]), 28.6 µM. Also, in data set [2], the viability (as a rule, a read-out of living cells in per cent, often relative to untreated cells) at 48 h, 10 μM worked out at 82%.

With `CC(C)(C)c1n[nH]c(N2CCOCC2)c1C#N` [13b, 3‐(tert‐butyl)‐5‐morpholino‐1H‐pyrazole‐4‐carbonitrile], in data set [2], the viability at 48 h, 10 μM amounted to 91%.

With `CC(C)(C)c1n[nH]c(N2CCC(c3ccccc3)CC2)c1C#N` [13c, 3‐(tert‐butyl)‐5‐(4‐phenylpiperidin‐1‐yl)‐1H‐pyrazole‐4‐carbonitrile], the concentration for half-maximal inhibition (IC50) with P. falciparum W2 (setting [3]) was 11.1 µM; in data set [1], 30.4 µM; with L. tropica promastigotes, 34.6 µM; in the data set with P. falciparum D10 (setting [4]), 14.9 µM. Moreover, the viability at 48 h, 10 μM in data set [2] is 94%.

On to `COc1ccc(CCNc2[nH]nc(-c3ccccc3)c2C#N)cc1OC` [14a, 5‐((3,4‐dimethoxyphenethyl)amino)‐3‐phenyl‐1H‐pyrazole‐4‐carbonitrile], for which the half-maximal inhibitory concentration (IC50) in the data set with P. falciparum W2 (setting [3]) came to 36.5 µM; in data set [1], 40.1 µM; with L. tropica promastigotes it was 55.7 µM; with P. falciparum D10 (setting [4]), 35.1 µM. Moreover, the viability at 48 h, 10 μM in data set [2] came to 87%.

Consider `N#Cc1c(-c2ccccc2)n[nH]c1N1CCOCC1` [14b, 5‐morpholino‐3‐phenyl‐1H‐pyrazole‐4‐carbonitrile], for which the IC50 in data set [1] worked out at 75.9 µM. Besides, the viability at 48 h, 10 μM in data set [2] was 84%.

For the compound `N#Cc1c(-c2ccccc2)n[nH]c1N1CCC(c2ccccc2)CC1` [14c, 3‐phenyl‐5‐(4‐phenylpiperidin‐1‐yl)‐1H‐pyrazole‐4‐carbonitrile], the IC50 in the data set on P. falciparum W2 (setting [3]) turned out to be 23.4 µM; in data set [1] it was 22.4 µM; in the data set with L. tropica promastigotes it was 21.3 µM; in the data set on P. falciparum D10 (setting [4]), 31 µM. Besides, in data set [2], the viability at 48 h, 10 μM was determined as 76%.

As to `CCCCN(CCCC)CCNc1[nH]nc(-c2ccccc2)c1C#N` [14d, 5‐((2‐(dibutylamino)ethyl)amino)‐3‐phenyl‐1H‐pyrazole‐4‐carbonitrile], the IC50 with P. falciparum W2 (setting [3]) was 9 µM; in data set [1], 7.92 µM; in the data set with L. tropica promastigotes, 11.6 µM; in the data set on P. falciparum D10 (setting [4]) it was 9.52 µM. The viability at 48 h, 10 μM in data set [2] was determined as 71%.

On to `CCCCN(CCCC)CCCNc1[nH]nc(-c2ccccc2)c1C#N` [14e, 5‐((3‐(dibutylamino)propyl)amino)‐3‐phenyl‐1H‐pyrazole‐4‐carbonitrile], for which the half-inhibitory concentration (IC50) is 4.34 µM in the data set on P. falciparum W2 (setting [3]), 6.17 µM in data set [1], 8.32 µM in the data set on L. tropica promastigotes and 9.79 µM in the data set with P. falciparum D10 (setting [4]). Besides, in data set [2], the viability at 48 h, 10 μM amounted to 65%.

With `CCN(CC)CCCC(C)Nc1[nH]nc(-c2ccccc2)c1C#N` (stereo not drawn) [14f, 5‐((5‐(diethylamino)pentan‐2‐yl)amino)‐3‐phenyl‐1H‐pyrazole‐4‐carbonitrile], the half-inhibitory concentration (IC50) in the data set on P. falciparum W2 (setting [3]) came out at 13.4 µM; in data set [1] it was 11 µM; with L. tropica promastigotes, 9.74 µM; with P. falciparum D10 (setting [4]), 43.3 µM. In addition, the viability at 48 h, 10 μM in data set [2] was found to be 58%.

On to `COc1ccc(CCNc2[nH]nc(N)c2S(=O)(=O)c2ccccc2)cc1OC` [15a, N ^ 5 ‐(3,4‐dimethoxyphenethyl)‐4‐(phenylsulfonyl)‐1H‐pyrazole‐3,5‐diamine], for which the viability at 48 h, 10 μM in data set [2] was found to be 70%.

As to `Nc1n[nH]c(N2CCOCC2)c1S(=O)(=O)c1ccccc1` [15b, 5‐morpholino‐4‐(phenylsulfonyl)‐1H‐pyrazol‐3‐amine], the IC50 in the data set with P. falciparum W2 (setting [3]) came out at 50.4 µM; in the data set with P. falciparum D10 (setting [4]), 49.6 µM. The viability at 48 h, 10 μM in data set [2] came out at 87%.

Take `Nc1n[nH]c(N2CCC(c3ccccc3)CC2)c1S(=O)(=O)c1ccccc1` [15c, 5‐(4‐phenylpiperidin‐1‐yl)‐4‐(phenylsulfonyl)‐1H‐pyrazol‐3‐amine]: the concentration for half-maximal inhibition (IC50) was 51.8 µM in the data set on P. falciparum W2 (setting [3]), 27.4 µM in data set [1], 44 µM in the data set with L. tropica promastigotes and 38 µM in the data set with P. falciparum D10 (setting [4]). Besides, the viability at 48 h, 10 μM in data set [2] came to 102%.

For `COc1ccc(CCNc2nc(N)nc(O)c2C#N)cc1OC` [16a, 2‐amino‐4‐((3,4‐dimethoxyphenethyl)amino)‐6‐hydroxypyrimidine‐5‐carbonitrile], the values for the IC50 in the data set on P. falciparum W2 (setting [3]) and in the data set on P. falciparum D10 (setting [4]) were 31.7 µM and 9.24 µM, respectively. In data set [2], the viability at 48 h, 10 μM stood at 67%.

For the compound `N#Cc1c(O)nc(N)nc1N1CCOCC1` [16b, 2‐amino‐4‐hydroxy‐6‐morpholinopyrimidine‐5‐carbonitrile], the viability at 48 h, 10 μM in data set [2] worked out at 65%.

As for `CCCCN(CCCC)CCCNc1nc(N)nc(O)c1C#N` [16e, 2‐amino‐4‐((3‐(dibutylamino)propyl)amino)‐6‐hydroxypyrimidine‐5‐carbonitrile], the IC50 in the data set on P. falciparum W2 (setting [3]) was 45 µM. Besides, the viability at 48 h, 10 μM in data set [2] amounted to 66%.

`COc1ccc(CCNc2nc(N)nc(-c3ccccc3)c2C#N)cc1OC` [17a, 2‐amino‐4‐((3,4‐dimethoxyphenethyl)amino)‐6‐phenylpyrimidine‐5‐carbonitrile]: in data set [2], the viability at 48 h, 10 μM turned out to be 46%.

Take `N#Cc1c(-c2ccccc2)nc(N)nc1N1CCOCC1` [17b, 2‐amino‐4‐morpholino‐6‐phenylpyrimidine‐5‐carbonitrile]: the viability at 48 h, 10 μM in data set [2] was 66%.

Regarding `CCCCN(CCCC)CCCNc1nc(N)nc(-c2ccccc2)c1C#N` [17e, 2‐amino‐4‐((3‐(dibutylamino)propyl)amino)‐6‐phenylpyrimidine‐5‐carbonitrile], the half-maximal inhibitory concentration (IC50) in the data set on P. falciparum W2 (setting [3]) amounted to 4.18 µM; in data set [1], 7.31 µM; with L. tropica promastigotes, 9.14 µM; with P. falciparum D10 (setting [4]), 16.7 µM. The viability at 48 h, 10 μM in data set [2] was determined as 67%.

Regarding `C[C@@H]1[C@H](O)[C@@H](C)/C=C/C=C/C=C/C=C/C=C/C=C/C=C/[C@H](O[C@@H]2O[C@H](C)[C@@H](O)[C@H](N)[C@@H]2O)C[C@@H]2O[C@](O)(C[C@@H](O)C[C@@H](O)[C@H](O)CC[C@@H](O)C[C@@H](O)CC(=O)O[C@H]1C)C[C@H](O)[C@H]2C(=O)O` [AmB, amphotericin B, reference compound], the values for the IC50 (in data set [1]; in the data set with L. tropica promastigotes) were 0.22 µM and 0.29 µM, respectively.

Regarding `CCN(CC)CCCC(C)Nc1ccnc2cc(Cl)ccc12` (stereo not drawn) [CQ, chloroquine, reference compound], the IC50 amounted to 0.45 µM in the data set on P. falciparum W2 (W2, 72 h) and 0.04 µM in the data set with P. falciparum D10 (D10, 72 h).

As to `N#Cc1c(-c2cccc(Br)c2)n[nH]c1Nc1ccccc1` [VIa, reference compound], the half-inhibitory concentration (IC50) in the data set with P. falciparum W2 (setting [3]) is 21 µM; in data set [1] it was 17.7 µM; in the data set with L. tropica promastigotes, 21.2 µM; in the data set on P. falciparum D10 (setting [4]) it was 27.8 µM. Further, the viability at 48 h, 10 μM in data set [2] amounted to 78%.
